What was measured:
CYP2C19 = target: T1, CYP2C19 (Homo sapiens, UniProt P33261); assay: CYP inhibition test (CYP2C19); type: in vitro ADME; conditions: pooled human hepatic microsome, mephenyloin 4′-hydroxylation
T1 construct: enzyme, pooled human hepatic microsome 0.2 mg protein/mL; from tissue; host or cells: pooled human hepatic microsome
Source text: (§1) Using commercially available pooled human hepatic microsome, and employing, as markers, 7-ethoxyresorufin O-deethylation (CYP1A2), tolbutamide methyl-hydroxylation (CYP2C9), mephenyloin 4′-hydroxylation (CYP2C19), dextromethorphan O-demethylation (CYP2D6), and terfenedine hydroxylation (CYP3A4) as typical substrate metabolism reactions of human main five CYP enzyme forms (CYP1A2, 2C9, 2C19, 2D6, 3A4), an inhibitory degree of each metabolite production amount by a compound of the present invention was assessed. […] After the centrifugation at 3000 rpm for 15 minutes, resorufin (CYP1A2 metabolite) in the supernatant was quantified by a multi-label counter and hydroxytolbutamide (CYP2C9 metabolite), 4′-hydroxymephenyloin (CYP2C19 metabolite), dextrorphan (CYP2D6 metabolite), and terfenadine alcohol metabolite (CYP3A4 metabolite) were quantified by LC/MS/MS. Addition of only DMSO being a solvent dissolving a compound to a reaction system was adopted as a control (100%), remaining activity (%) was calculated and IC50 was calculated by reverse presumption by a logistic model using a concentration and an inhibition rate.

CYP2C9 = target: T2, CYP2C9 (Homo sapiens, UniProt P11712); assay: CYP inhibition test (CYP2C9); type: in vitro ADME; conditions: pooled human hepatic microsome, tolbutamide methyl-hydroxylation
T2 construct: enzyme, pooled human hepatic microsome 0.2 mg protein/mL; from tissue; host or cells: pooled human hepatic microsome
Source text: as §1

CYP1A2 = target: T3, CYP1A2 (Homo sapiens, UniProt P05177); assay: CYP inhibition test (CYP1A2); type: in vitro ADME; conditions: pooled human hepatic microsome, 7-ethoxyresorufin O-deethylation
T3 construct: enzyme, pooled human hepatic microsome 0.2 mg protein/mL; from tissue; host or cells: pooled human hepatic microsome
T3 sequence (P05177 1-516): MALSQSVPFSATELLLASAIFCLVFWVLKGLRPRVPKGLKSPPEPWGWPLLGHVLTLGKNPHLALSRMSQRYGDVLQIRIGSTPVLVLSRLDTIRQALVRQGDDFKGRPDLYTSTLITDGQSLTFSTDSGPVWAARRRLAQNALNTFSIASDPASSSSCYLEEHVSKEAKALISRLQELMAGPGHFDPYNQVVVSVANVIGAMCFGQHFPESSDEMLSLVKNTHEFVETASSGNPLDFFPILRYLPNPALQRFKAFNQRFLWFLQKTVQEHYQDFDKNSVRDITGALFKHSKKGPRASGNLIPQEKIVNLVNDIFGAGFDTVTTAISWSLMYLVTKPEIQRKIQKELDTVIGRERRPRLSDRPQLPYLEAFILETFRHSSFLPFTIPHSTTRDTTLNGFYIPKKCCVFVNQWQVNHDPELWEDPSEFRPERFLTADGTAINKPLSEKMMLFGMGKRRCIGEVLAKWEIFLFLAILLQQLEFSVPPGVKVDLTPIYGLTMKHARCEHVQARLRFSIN
Source text: as §1

Recombinant human BACE1 = target: T4, Recombinant human BACE1 (Homo sapiens, UniProt P56817); assay: Assay of BACE1 inhibitory activity; type: biochemical; conditions: Recombinant human BACE1, 30° C., 3 hours, pH 5.0; read-out: IC50 (50% inhibitory concentration against the enzymatic activity)
T4 construct: purchased R&D Systems
Description: 48.5 μL of substrate peptide solution (Biotin-XSEVNLDAEFRHDSGC-Eu: X=ε-amino-n-capronic acid, Eu=Europium cryptate) was added to each well of 96-hole half-area plate (a black plate: Costar), and after addition of 0.5 μl of the compound of the present invention (N,N′-dimethylformamide solution) and 1 μl of Recombinant human BACE1(R&D Systems), the reaction mixture was incubated at 30° C. for 3 hours. The substrate peptide was synthesized by reacting Cryptate TBPCOOH mono SMP (CIS bio international) with Biotin-XSEVNLDAEFRHDSGC (Peptide Institute, Inc.). The final concentrations of the substrate peptide and Recombinant human BACE1 were adjusted to 18 nmol/L and 7.4 nmol/L, respectively, and the reaction was performed in sodium acetate buffer (50 mmol/L sodium acetate, pH 5.0, 0.008% Triton X-100). After the incubation for reaction, 50 μl of 8.0 μg/ml Streptavidin-XL665 (CIS bio international) dissolved in phosphate buffer (150 mmol/L K2HPO4—KH2PO4, pH 7.0, 0.008% Triton X-100, 0.8 mol/L KF) was added to each well and left stand at 30° C. for 1 hour. After then, fluorescence intensity was measured (excitation wavelength: 320 nm, measuring wavelength: 620 nm and 665 nm) using Wallac 1420 multilabel counter (Perkin Elmer life sciences). Enzymatic activity was determined from counting ratio of each wavelength (10,000×Count 665/Count 620) and 50% inhibitory concentration against the enzymatic activity (IC50) was calculated.

CYP2D6 = target: T5, CYP2D6 (Homo sapiens, UniProt P10635); assay: CYP inhibition test (CYP2D6); type: in vitro ADME; conditions: pooled human hepatic microsome, dextromethorphan O-demethylation
T5 construct: enzyme, pooled human hepatic microsome 0.2 mg protein/mL; from tissue; host or cells: pooled human hepatic microsome
Source text: as §1

CYP3A4 = CYP3A4 (Homo sapiens, UniProt P08684); assay: CYP inhibition test (CYP3A4); type: in vitro ADME; design: enzyme, pooled human hepatic microsome 0.2 mg protein/mL; from tissue; host or cells: pooled human hepatic microsome; conditions: pooled human hepatic microsome, terfenedine hydroxylation
Source text: as §1

[1] = Metabolism stability test; type: in vitro ADME; conditions: human liver microsomes 0.5 mg protein/mL, 37° C., 30 minutes, NADPH
Description: Using a commercially available pooled human hepatic microsomes, a compound of the present invention is reacted for a constant time, a remaining rate is calculated by comparing a reacted sample and an unreacted sample, thereby, a degree of metabolism in liver of the compound of the present invention is assessed.
A reaction is performed (oxidative reaction) at 37° C. for 0 minute or 30 minutes in the presence of 1 mmol/L NADPH in 0.2 mL of a buffer (50 mmol/L Tris-HCl pH 7.4, 150 mmol/L potassium chloride, 10 mmol/L magnesium chloride) containing 0.5 mg protein/mL of human liver microsomes. After the reaction, 50 μL of the reaction solution is added to 100 μL of a methanol/acetonitrile=1/1 (v/v), mixed and centrifuged at 3000 rpm for 15 minutes. The compound of the present invention in the supernatant is quantified by LC/MS/MS, and a remaining amount of the compound of the present invention after the reaction is calculated, letting a compound amount at 0 minute reaction time to be 100%.

T4 sequence (P56817 46-501): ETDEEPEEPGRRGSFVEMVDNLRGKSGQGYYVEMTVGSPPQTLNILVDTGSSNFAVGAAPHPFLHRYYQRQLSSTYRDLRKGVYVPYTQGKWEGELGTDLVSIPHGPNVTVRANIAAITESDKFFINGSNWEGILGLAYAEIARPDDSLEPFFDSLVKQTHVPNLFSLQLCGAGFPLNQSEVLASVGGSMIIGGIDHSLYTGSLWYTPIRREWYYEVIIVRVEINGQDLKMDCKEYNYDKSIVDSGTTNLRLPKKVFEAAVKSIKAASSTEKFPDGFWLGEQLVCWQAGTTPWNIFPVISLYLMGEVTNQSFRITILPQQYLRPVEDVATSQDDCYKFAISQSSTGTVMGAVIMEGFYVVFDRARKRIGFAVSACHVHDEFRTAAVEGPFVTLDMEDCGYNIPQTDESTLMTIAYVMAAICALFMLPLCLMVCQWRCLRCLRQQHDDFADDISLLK
T2 sequence (P11712 whole entry): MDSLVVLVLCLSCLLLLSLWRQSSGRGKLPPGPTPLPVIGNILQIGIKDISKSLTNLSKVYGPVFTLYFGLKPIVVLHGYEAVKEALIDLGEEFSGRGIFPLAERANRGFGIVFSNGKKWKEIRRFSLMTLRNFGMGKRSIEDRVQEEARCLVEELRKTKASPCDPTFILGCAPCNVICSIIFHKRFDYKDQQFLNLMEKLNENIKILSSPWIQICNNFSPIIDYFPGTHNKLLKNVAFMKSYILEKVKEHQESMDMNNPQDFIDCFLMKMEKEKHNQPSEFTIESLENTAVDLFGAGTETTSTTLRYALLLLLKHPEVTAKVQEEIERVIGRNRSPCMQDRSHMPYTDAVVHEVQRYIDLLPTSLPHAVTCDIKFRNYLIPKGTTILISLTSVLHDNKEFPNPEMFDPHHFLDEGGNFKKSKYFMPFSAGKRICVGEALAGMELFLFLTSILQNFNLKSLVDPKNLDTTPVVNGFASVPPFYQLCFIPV
T1 sequence (P33261 whole entry): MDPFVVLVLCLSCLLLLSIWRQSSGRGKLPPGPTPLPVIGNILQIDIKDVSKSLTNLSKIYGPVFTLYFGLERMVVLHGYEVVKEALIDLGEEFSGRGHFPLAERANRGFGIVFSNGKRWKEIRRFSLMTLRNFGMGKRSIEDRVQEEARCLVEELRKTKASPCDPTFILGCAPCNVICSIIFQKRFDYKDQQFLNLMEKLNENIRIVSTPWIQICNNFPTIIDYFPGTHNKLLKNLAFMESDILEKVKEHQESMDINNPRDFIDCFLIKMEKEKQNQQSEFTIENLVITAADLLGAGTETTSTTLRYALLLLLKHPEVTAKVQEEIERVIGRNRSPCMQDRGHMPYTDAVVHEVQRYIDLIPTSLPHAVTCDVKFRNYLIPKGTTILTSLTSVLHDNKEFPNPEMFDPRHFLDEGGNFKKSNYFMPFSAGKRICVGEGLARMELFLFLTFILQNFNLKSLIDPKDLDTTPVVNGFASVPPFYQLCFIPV
T5 sequence (P10635 whole entry): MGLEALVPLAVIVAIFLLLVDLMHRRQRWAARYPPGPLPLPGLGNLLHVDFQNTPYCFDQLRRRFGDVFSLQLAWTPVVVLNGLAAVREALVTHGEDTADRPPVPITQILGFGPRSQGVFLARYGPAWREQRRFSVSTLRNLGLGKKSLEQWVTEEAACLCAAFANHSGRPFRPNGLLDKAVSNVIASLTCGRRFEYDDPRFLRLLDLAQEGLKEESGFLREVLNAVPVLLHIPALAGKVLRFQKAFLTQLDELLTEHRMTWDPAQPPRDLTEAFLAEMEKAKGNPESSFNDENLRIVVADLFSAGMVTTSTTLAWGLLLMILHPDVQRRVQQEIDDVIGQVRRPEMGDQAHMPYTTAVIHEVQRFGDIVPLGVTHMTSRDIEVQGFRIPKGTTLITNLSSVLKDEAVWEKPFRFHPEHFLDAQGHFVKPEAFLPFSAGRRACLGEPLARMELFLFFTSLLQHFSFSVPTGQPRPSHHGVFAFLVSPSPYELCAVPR
Chain of CYP3A4 (P08684 whole entry): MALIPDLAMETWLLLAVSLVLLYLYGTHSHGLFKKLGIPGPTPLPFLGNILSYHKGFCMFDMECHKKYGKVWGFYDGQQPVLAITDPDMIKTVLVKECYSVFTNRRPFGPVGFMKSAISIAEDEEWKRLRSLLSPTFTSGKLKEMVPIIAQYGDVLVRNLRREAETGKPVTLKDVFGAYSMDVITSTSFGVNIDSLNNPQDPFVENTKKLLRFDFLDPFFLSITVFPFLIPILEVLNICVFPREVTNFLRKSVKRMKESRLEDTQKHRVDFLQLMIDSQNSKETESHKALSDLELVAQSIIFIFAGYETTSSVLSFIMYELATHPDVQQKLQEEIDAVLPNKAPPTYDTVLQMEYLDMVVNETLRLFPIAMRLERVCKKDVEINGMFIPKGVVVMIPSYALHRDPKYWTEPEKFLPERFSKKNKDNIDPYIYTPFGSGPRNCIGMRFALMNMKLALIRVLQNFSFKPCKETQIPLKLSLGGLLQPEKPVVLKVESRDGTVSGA

IC50 (CYP2C19) [µM]	IC50 (CYP2C9) [µM]	IC50 (CYP1A2) [µM]	IC50 (Recombinant human BACE1) [µM]	IC50 (CYP2D6) [µM]	IC50 (CYP3A4) [µM]	remaining amount after the reaction [1] [%]	SMILES
> 20	> 20	> 20	≤ 1	> 20	> 20	–	CC1(c2cc(NC(=O)c3ncc(F)cc3F)ccc2F)Cc2ccncc2C(N)=N1 (centres unmarked) [Compound I-2]
–	–	–	≤ 1	–	–	88	CC1(c2cc(NC(=O)c3ccc(C#N)cn3)ccc2F)Cc2cnccc2C(N)=N1 (centres unmarked) [Compound I-5]
